Measured values published in patent US6960343B2, “Toll/interleukin-1 receptor adapter protein (TIRAP)” (Yale University School of Medicine, priority 2001, dated 2005).

How the values were obtained:
dendritic cells (DCs) = test: Dendritic cell maturation, flow cytometry of costimulatory molecules B7.1 and B7.2; type: cell-based, mice; settings: peptide 10 μM
Procedure: (§1) (A) Wild-type and MyD88^−/− dendritic cells (DCs) were induced with LPS or CpG and analyzed for expression of the costimulatory molecules B7.1 and […] flow cytometry. (B) Production of the cytokines, IL-12 and IL-6, was measured in cells that were untreated (none) or treated with LPS or CpG in the presence or absence of TIRAP peptide. (C) T cell proliferation was measured in wild-type DCs that were untreated (none), treated with LPS alone (LPS), or treated with LPS in the presence of increasing amounts of TIRAP peptide (LPS+TIRAP peptide). T cell proliferation was measured by incorporation of ^3H-thymidine into cells, expressed as cpm×10^3.
In view of the important role for TIRAP in mediating LPS-responsiveness in macrophages, the role of TIRAP in LPS-induced DC maturation was investigated. TIRAP is likely to be critical in these events because MyD88-deficient DCs retain the ability to upregulate costimulatory molecules in response to LPS stimulation (Kaisho 2001). To determine the effect of TIRAP on the expression of the costimulatory molecules B7.1 and B7.2, flow cytometry was performed on wild type and MyD88-/-DC. DCs were either unstimulated (shaded), stimulated with LPS (10 ng/ml) or CpG (10 μM) (black line), or pretreated with TIRAP peptide (10 μM) prior to stimulation with LPS or CpG (dashed line). […]

JNK = JNK phosphorylation in RAW cells, immunoblot; type: cell-based; settings: 40 μM peptide
Procedure: (§2) FIG. 5, comprising FIGS. 5A through 5D, is a series of blots depicting inhibition of LPS- but not CpG-induced NF-κB activation, PKR phosphorylation, and JNK phosphorylation by TIRAP. (A) TIRAP peptide, but not a reverse sequence peptide, inhibited LPS-induced NF-κB activation. RAW κB cells pretreated for 1 h with either the TIRAP or control peptide were stimulated with LPS (10 ng/ml) for 5 h. Samples were stimulated in duplicate. (B) Pretreatment of RAW cells with TIRAP peptide blocks LPS-induced IκB-α degradation. RAW cells pretreated with the TIRAP peptide as indicated were either left unstimulated or stimulated with LPS (10 ng/ml) for the indicated time periods. […] Lysates (30 μg/sample) were analyzed by SDS-PAGE followed by immunoblotting with antibodies that specifically recognize phosphorylated PKR or phosphorylated JNK.
(§3) To determine whether a TIRAP mutant peptide inhibits PKR and JNK phosphorylation induced by LPS or CpG, RAW cells either untreated or pretreated with 40 μM of the TIRAP peptide were either left unstimulated or stimulated with either LPS (10 ng/ml) or CpG (10 μM) for the indicated time periods before harvest and lysis. Lysates (30 μg/sample) were analyzed by SDS-PAGE followed by immunoblotting with antibodies that specifically recognize phosphorylated PKR and JNK.

IL-12 = IL-12 production by dendritic cells; type: cell-based, mice; settings: DCs
Procedure: as §1
(§4) To determine the effects of the TIRAP peptide on cytokine production, DCs were treated with or without TIRAP peptide prior to stimulation with LPS or CpG (as described above), and the production of IL-12 and IL-6 was measured. Addition of TIRAP peptide inhibited production of IL-12 and IL-6 cytokines in response to stimulation with LPS, but not CpG (FIG. 6B).

PKR = PKR phosphorylation in RAW cells, immunoblot; type: cell-based; settings: 40 μM peptide
Procedure: as §2, §3

[1] = tested on: 1H3.1 TCR transgenic T cells; test: CD4 T cell proliferation stimulated by DCs, 3H-thymidine incorporation; type: cell-based; settings: DCs from wild-type or MyD88-deficient mice, LPS, Eα peptide, 48 h culture
Procedure: as §1
Lastly, the effect of TIRAP peptide on T cell proliferation was evaluated. Stimulation of CD4 T cell proliferation by DCs treated with or without TIRAP peptide prior to stimulation with LPS was performed in the presence of varying concentrations of Eα peptide. DCs were fixed prior to incubation with 1H3.1 TCR transgenic T cells (specific for Eα peptide bound to I-A). Proliferation was measured by ^3H-thymidine incorporation for the last 24 h of a 48 h culture.

IκB-α = IκB-α degradation in RAW cells, immunoblot; type: cell-based
Procedure: (§5) FIG. 5, comprising FIGS. 5A through 5D, is a series of blots depicting inhibition of LPS- but not CpG-induced NF-κB activation, PKR phosphorylation, and JNK phosphorylation by TIRAP. (A) TIRAP peptide, but not a reverse sequence peptide, inhibited LPS-induced NF-κB activation. RAW κB cells pretreated for 1 h with either the TIRAP or control peptide were stimulated with LPS (10 ng/ml) for 5 h. Samples were stimulated in duplicate. (B) Pretreatment of RAW cells with TIRAP peptide blocks LPS-induced IκB-α degradation. RAW cells pretreated with the TIRAP peptide as indicated were either left unstimulated or stimulated with LPS (10 ng/ml) for the indicated time periods. Lysates (30 μg/sample) were resolved by SDS-PAGE followed by immunoblotting with an anti-IκB-α antibody to assess IκB-α degradation. (C) TIRAP peptide inhibited LPS- but not CpG-induced NF-κB activity. RAW κB cells pretreated with the TIRAP peptide as indicated were stimulated with either LPS or CpG and harvested for reporter assay. (D) TIRAP peptide inhibited PKR and JNK phosphorylation induced by LPS but not CpG. RAW cells either untreated or pretreated with 40 μM of the TIRAP peptide were stimulated with either LPS or CpG as indicated. Lysates (30 μg/sample) were analyzed by SDS-PAGE followed by immunoblotting with antibodies that specifically recognize phosphorylated PKR or phosphorylated JNK. […]

NF-κB = test: NF-κB-dependent luciferase reporter assay in RAW κB macrophage cell line; type: cell-based; settings: RAW κB cells
Procedure: as §5

IL-6 = IL-6 production by dendritic cells; type: cell-based, mice; settings: DCs
Procedure: as §1, §4

TIRAP peptide: synthetic peptide corresponding to the P125 region of mTIRAP linked to the C-terminus of a peptide derived from antennapedia (RQIKIWFQNRRMKWKKLQLRDAAPGGAIVS; TIRAP/Antennapedia fusion protein)
CpG-induced DC maturation (dendritic cells (DCs); DCs, CpG 10 μM): no effect
LPS-induced upregulation of B7.1 and B7.2 molecules (dendritic cells (DCs); wild-type and MyD88-deficient DCs, LPS 10 ng/ml): abolished
inhibition of JNK phosphorylation induced by CpG (JNK; CpG): not CpG
inhibition of JNK phosphorylation induced by LPS (JNK; LPS): inhibited
production of IL-12 in response to CpG (IL-12; peptide before CpG stimulation): not CpG
production of IL-12 in response to LPS (IL-12; peptide before LPS stimulation): inhibited
inhibition of PKR phosphorylation induced by CpG (PKR; CpG 10 μM): not CpG
inhibition of PKR phosphorylation induced by LPS (PKR; LPS 10 ng/ml): inhibited
T cell proliferation induced by peptide-treated DCs [1]: unable to induce T cell proliferation
LPS-induced IκB-α degradation (IκB-α; 1 hour pretreatment with 40 μM peptide, LPS 10 ng/ml): did not induce IκB-α degradation
inhibition of CpG-induced IκB-α degradation (IκB-α; CpG): did not inhibit
inhibition of LPS-induced NF-κB activation (NF-κB; 1 hour pretreatment, LPS 10 ng/ml 5 hours, TIRAP peptide 50 μM): potently inhibited
inhibition of CpG-induced NF-κB activation (NF-κB; CpG 10 μM 5 hours): did not inhibit
production of IL-6 in response to CpG (IL-6; peptide before CpG stimulation): not CpG
production of IL-6 in response to LPS (IL-6; peptide before LPS stimulation): inhibited
